According to US8945549B2, “Methods of treating antinociceptive tolerance” (Saint Louis University, priority 2010, dated 2015):

Key:
S1P = S1P levels in dorsal horn tissue by ELISA; format: in vivo, rat
Male Sprague Dawley rats [1] = experiment: Antinociceptive tolerance (tail flick after acute morphine) in rats with chronic s.c. morphine or saline infusion; format: in vivo, rat; conditions: for development of morphine antinociceptive tolerance: daily i.th for 6 days with s.c. morphine infusion, Myr 0.3, FB1 1, D609 1, DMS 0.3, SK-1 0.3 μM/day; for effect on antinociceptive responses to acute morphine: drug alone vs Veh-Sal; for effect on antinociceptive responses to acute morphine / % MPE (Tail-flick): day 6; for % MPE (Tail-flick): drug given alone i.th daily over 6 days to saline-infused rats, response to acute morphine, mean ± SEM; for effect on tail flick latencies when given alone: daily i.th 3 μM/day, saline-infused rats, vs vehicle group
Experimental: (§1) Osmotic pump implantation. Rats, under light isoflurane anesthesia, were subcutaneously implanted (in the interscapular region) with osmotic pumps (Alzet 2001; Alza, Mountain View Calif.), to deliver saline at 1 μl/h or morphine at 75 μg μl^−1h^−1 over 7 days as described (Vera-Portocarrero et al., 2006). Minipumps were filled according to manufacturer's specifications. The use of the osmotic pump ensures a continuous delivery of morphine avoiding intermittent periods of withdrawal. The integrity of the pump delivery system was reexamined at the end of each experiment when the spinal cords were harvested.
(§2) Drug administration. The test substances fumonisin B1 (FB 1, Sigma-Aldrich, St. Louis, Mo.), myriocin (Myr Sigma-Aldrich, St. Louis, Mo.), D609 (Tricyclodecan-9-ylxanthogenate, K; Calbiochem, San Diego, Calif.), DMS (N,N-Dimethylsphingosine, Caymen Chemical, Ann Arbor, Mich.), SK-I 2-(p-hydroxyanilino)-4-(p-chlorophenyl) thiazole, Calbiochem, San Diego, Calif.) or their vehicle (0.5% in DMSO) were delivered by intrathecal (i.th) injection in rats chronically implanted with i.th cannulas as described previously (Storkson et al., 1996). Test substances were injected i.th once a day for 6 days in a total volume of 10 μl followed by a 10 μl flush with sterile physiological saline.
After the Hargreave's test, the development of antinociceptive tolerance was determined in all animals as follows. Acute nociception. The tail flick test which measures, withdrawal latencies of the tail from a noxious radiant heat source was used to measure thermal nociceptive sensitivity with baseline latencies of 4-5 sec and it cut-off time of 10 sec to prevent tissue injury (D'Amour, 1941). […]. Test substances or vehicle were given on day 0-6 after completion of the behavioral tests. At the required time points, after the behavioral tests, spinal cord tissues from the lumbar, enlargement segment of the spinal cord (L4-L6) and dorsal horn tissues were removed and tissues processed for immunohistochemical, Western blot and biochemical analysis. All experiments were conducted with the experimenters blinded to treatment conditions. […]

Male Sprague Dawley rats [2] = experiment: Thermal hyperalgesia (Hargreaves paw-withdrawal latency) in rats with chronic s.c. morphine or saline infusion; format: in vivo, rat; conditions: for development of morphine-induced hyperalgesia: daily i.th for 6 days with s.c. morphine infusion, Myr 0.3, FB1 1, D609 1, DMS 0.3, SK-1 0.3 μM/day; for effect on paw-withdrawal latencies: drug alone vs Veh-Sal; for effect on paw-withdrawal latencies / Paw-Withdrawal Latency: day 6; for Paw-Withdrawal Latency: drug given alone i.th daily over 6 days to saline-infused rats, mean ± SEM; for effect on hindpaw withdrawal latencies when given alone: daily i.th 3 μM/day, saline-infused rats, vs vehicle group
Experimental: as §1, §2
Behavioral tests. Thermal hyperalgesia. The method of Hargreaves and colleagues was used to assess changes in baseline nociceptive responses to a thermal nociceptive stimulus (Hargreaves et al., 1988). Animals were allowed to acclimate within a Plexiglas enclosure on a clear glass plate in a quiet testing room. A radiant heat source is focused onto the plantar aspect of the hindpaw with baseline latencies of 18-20 sec. and a maximal cutoff time of 20 sec to prevent tissue damage. The paw-withdrawal latency is determined by a motion detector activated by the paw withdrawal, stopping a timer. Foot withdrawal latencies were taken on the day before implantation of the minipumps (baseline) and subsequently on days 1, 3 and 6 of the experimental period to determine whether morphine-tolerant animals develop increased sensitivity to thermal stimulation. A significant (P<0.05) reduction in paw-withdrawal latency over time and before implantation of the osmotic minipump is characterized as thermal hyperalgesia. […]

S1P2 = S1P2 (Homo sapiens, UniProt O95136); conditions: cited from earlier work
S1P5 = S1P5 (Homo sapiens, UniProt Q9H228); conditions: relative to S1P1; cited from earlier work
[3] = Carrageenan-induced inflammation; format: in vivo; conditions: intraplantar injection 15 min before carrageenan
rats [4] = experiment: Carrageenan-induced thermal hyperalgesia; format: in vivo, rat
Male Sprague Dawley rats [5] = experiment: Antinociceptive tolerance (tail flick after acute morphine) in rats with chronic s.c. morphine or saline infusion; format: in vivo, rat; conditions: acute i.th injection; n=4, not shown
[6] = molecular target: S1P1 subtype, human receptor (Homo sapiens, UniProt P21453); conditions: GTP-γS binding assay; cited from earlier work
rats [7] = conditions: rat, in vivo
Experimental: (§3) Tail flick latency (s) was tested before and 30 min after morphine (FIG. 26).

murine S1P1 subtype = murine S1P1 subtype (Mus musculus, UniProt O08530); conditions: cited from earlier work
rats [8] = experiment: Ceramide-induced thermal hyperalgesia (intraplantar); format: in vivo, rat
Male Sprague Dawley rats [9] = experiment: Paclitaxel-induced neuropathic pain (mechano-allodynia, mechano-hyperalgesia); format: in vivo, rat
Experimental: Paclitaxel-Induced: Paclitaxcel-induced pain was studied by means of the well-characterized rat model developed by Bennett in which repeated intraperitoneal (i.p) injections of low doses of paclitaxel are administered to induce neuropathic pain (methano-allodynia and mechano-hyperalgesia) with little systemic toxicity or motor impairment (Polomano et al., Pain 94, 293-304 (2001)). The behavioral responses last for several weeks to months, thus modeling painful neuropathies in patients. Paclitaxel (Parentapharm. Yardley, Pa.) or its vehicle (Cremophor EL and 95% dehydrated ethanol in 1:1 ratio) was injected i.p in rats on four alternate days (day 0, 2, 4 and 6 with a final cumulative dose of 4 mg/kg). MnTE-2-PyP^5+, W146 (source), W140 (source) or their vehicle were delivered by intrathecal (i.th) injection (total volume of 10 μl followed by a 10 μl flush with sterile physiological saline) in rats chronically implanted with i.th cannulas using the L5/L6 lumbar approach, as described previously and Commonly used for drug delivery (Ramos et al. Neuroscience 169, 1888-1900 (2010); Schoeniger-Skinner, Brain Behav Immun 21, 660-667 (2007); Doyle, et al. Neurosci Lett (2010)). Drugs were injected 30 min before paclitaxel or its vehicle from day (D) 0 and then daily up to D15. In another set of experiments, Fingolimod (Fingolimod, Cayman Chemicals, Ann Arbor, Mich.) or its vehicle (1.2% ethanol in saline) were given by intraperitoneal injection (i.p., 0.2 ml) from D0 to D15; behavioral testing was carried out on D0 and at baseline and subsequently on D12, D16 and D22.
Behavioral testing: Baseline values were taken from all rats on day 0 Baseline. Drugs or vehicles under investigation were then given, followed 30 min later by a chemotherapeutic or vehicle. Behavioral testing was subsequently carried out on D12, D16 and D22.
Mechano-Allodynia and mechano-hyperalgesia: Mechanical withdrawal thresholds were assessed with an automated electronic version of the von Frey test (dynamic plantar aesthesiometer, model 37450; Ugo Basile, Milan, Italy). Each rat was placed in a Plexiglas chamber (28×40×35-cm, wire mesh floor) and allowed to acclimate for fifteen minutes. […] The pressure evoking a clear voluntary hind-paw withdrawal response (normally 40-45 g) was recorded automatically and taken as the mechanical threshold index. Mechanical threshold was assessed three times at each time point to yield a mean value, which is reported as mean absolute threshold (grams, g). […] Mechanical-hyperalgesia was assessed by the Randall and Sellitto paw pressure test 6 using an Ugo-Basile analgesiometer, which applies a linearly increasing mechanical force to the dorsum of the rat's hind paw. […]

[10] = S1P-induced thermal hyperalgesia (intraplantar); format: in vivo; conditions: intraplantar W146 15 minutes before intraplantar S1P
[11] = tested on: other known S1P receptor subtypes; conditions: at doses as high as 10-20 μM; cited from earlier work
rats [12] = experiment: Antinociceptive response to acute morphine (tail flick latency); format: in vivo, rat; conditions: W146 1 pM i.th 15 min before morphine 1, 3 or 6 mg/kg i.p; tail flick 30 min after morphine
Experimental: Acute nociception. The tail flick test, which measures withdrawal latencies of the tail from a noxious radiant heat source, was used to measure thermal nociceptive sensitivity with baseline latencies of 2-3 sec and a cut-off time of 10 sec to prevent tissue injury (D'Amour, J Pharmacol Exp Ther 72, 74-79 (1941)). […] Test substances or vehicle were given on day 0 through 6 after completion of the behavioral tests.
as §3

[13] = 3 μM/day i.th co-administered with morphine infusion
[14] = daily intrathecal, W146 0.3-3 μM/day, W140 3 μM/day

Sequence of S1P1 subtype, human receptor (P21453 whole entry): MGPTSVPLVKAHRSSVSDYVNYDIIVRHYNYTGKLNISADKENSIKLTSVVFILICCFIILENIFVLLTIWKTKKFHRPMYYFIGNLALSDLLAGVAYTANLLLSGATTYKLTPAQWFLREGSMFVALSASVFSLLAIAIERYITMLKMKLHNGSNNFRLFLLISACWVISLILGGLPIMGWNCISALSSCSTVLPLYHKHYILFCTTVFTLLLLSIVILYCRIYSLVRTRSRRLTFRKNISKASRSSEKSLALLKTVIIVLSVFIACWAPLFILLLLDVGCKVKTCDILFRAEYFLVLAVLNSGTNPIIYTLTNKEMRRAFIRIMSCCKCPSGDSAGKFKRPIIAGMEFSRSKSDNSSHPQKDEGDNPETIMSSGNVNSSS
Sequence of S1P5 (Q9H228 whole entry, species assumed): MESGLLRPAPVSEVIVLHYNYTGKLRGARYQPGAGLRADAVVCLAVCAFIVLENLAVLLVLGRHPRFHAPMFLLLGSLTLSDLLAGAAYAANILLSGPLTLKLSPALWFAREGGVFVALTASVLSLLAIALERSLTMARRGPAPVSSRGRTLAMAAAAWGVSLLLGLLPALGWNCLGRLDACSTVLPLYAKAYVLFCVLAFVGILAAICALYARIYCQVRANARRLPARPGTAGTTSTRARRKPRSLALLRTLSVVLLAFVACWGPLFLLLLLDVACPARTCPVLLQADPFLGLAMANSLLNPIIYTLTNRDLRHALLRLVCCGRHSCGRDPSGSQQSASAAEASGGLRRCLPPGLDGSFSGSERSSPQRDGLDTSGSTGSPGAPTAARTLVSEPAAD
Sequence of S1P2 (O95136 whole entry, species assumed): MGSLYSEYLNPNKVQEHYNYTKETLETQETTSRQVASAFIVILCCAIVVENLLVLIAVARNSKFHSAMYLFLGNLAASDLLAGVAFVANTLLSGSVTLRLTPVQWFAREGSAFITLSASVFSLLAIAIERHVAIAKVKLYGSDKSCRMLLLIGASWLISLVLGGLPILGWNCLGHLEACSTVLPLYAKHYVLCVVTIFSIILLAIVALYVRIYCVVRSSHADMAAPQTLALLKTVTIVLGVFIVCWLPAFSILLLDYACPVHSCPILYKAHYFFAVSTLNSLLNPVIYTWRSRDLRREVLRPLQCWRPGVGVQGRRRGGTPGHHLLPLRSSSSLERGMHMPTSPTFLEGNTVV
Sequence of murine S1P1 subtype (O08530 whole entry): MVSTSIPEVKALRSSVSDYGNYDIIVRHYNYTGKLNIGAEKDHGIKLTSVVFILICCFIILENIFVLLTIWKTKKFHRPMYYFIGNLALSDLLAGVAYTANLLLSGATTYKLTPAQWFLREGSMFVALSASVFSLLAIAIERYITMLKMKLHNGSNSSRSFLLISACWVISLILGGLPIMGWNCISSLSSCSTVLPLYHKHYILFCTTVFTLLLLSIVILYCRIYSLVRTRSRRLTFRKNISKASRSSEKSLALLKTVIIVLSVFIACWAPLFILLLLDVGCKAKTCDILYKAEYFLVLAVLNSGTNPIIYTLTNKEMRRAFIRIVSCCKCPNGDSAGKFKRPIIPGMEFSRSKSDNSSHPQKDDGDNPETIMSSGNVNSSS

Row | Compound | S1P (pg/mg tissue) (S1P; rat, in vivo) | morphine-induced increased production of S1P in dorsal horn tissues (S1P; rat, in vivo, sc) | development of morphine antinociceptive tolerance (Male Sprague Dawley rats [1]) | effect on antinociceptive responses to acute morphine (Male Sprague Dawley rats [1]) | % MPE (Tail-flick) (Male Sprague Dawley rats [1]) | development of morphine-induced hyperalgesia (Male Sprague Dawley rats [2]) | effect on paw-withdrawal latencies (Male Sprague Dawley rats [2]) | Paw-Withdrawal Latency (Male Sprague Dawley rats [2]) | other results
1 | S=C([S-])OC1CC2CC1C1CCCC21.[K+] (stereo not drawn) [D609, Tricyclodecan-9-ylxanthogenate, K] | 1.5 ± 0.06 pg/mg tissue | blocked | blocked | did not affect | 92 ± 3.0% | blocked | did not affect | 19 ± 0.7 s | effect on S1P levels in spinal cord tissues (S1P; rat, in vivo): did not affect
2 | CCCC[C@@H](C)[C@@H](OC(=O)C[C@@H](CC(=O)O)C(=O)O)[C@H](C[C@@H](C)C[C@H](O)CCCC[C@@H](O)C[C@H](O)[C@H](C)N)OC(=O)C[C@@H](CC(=O)O)C(=O)O [FB1, fumonisin B1] | 1.4 ± 0.06 pg/mg tissue | blocked | blocked | did not affect | 92 ± 3.2% | blocked | did not affect | 19 ± 0.8 s | effect on S1P levels in spinal cord tissues (S1P; rat, in vivo): did not affect
3 | CCCCCCCCc1ccc(CC[C@](N)(CO)COP(=O)(O)O)cc1 [Fingolimod-P] |  |  |  |  |  |  |  |  | binding affinity for S1P2 (S1P2): no reported affinity; binding affinity for S1P5 (S1P5): slightly lower affinity
4 | CCCCCCC(=O)CCCCCC/C=C/C[C@@H](O)[C@H](O)[C@@](N)(CO)C(=O)O [Myr, myriocin] | 1.2 ± 0.05 pg/mg tissue | blocked | blocked | did not affect | 91 ± 3.0% | blocked | did not affect | 19 ± 0.5 s | effect on S1P levels in spinal cord tissues (S1P; drug alone vs Veh-Sal, day 6): did not affect
5 | Oc1ccc(Nc2nc(-c3ccc(Cl)cc3)cs2)cc1 [SK-1, 2-(p-hydroxyanilino)-4-(p-chlorophenyl) thiazole] | 1.3 ± 0.06 pg/mg tissue |  | blocked | did not affect | 99 ± 0.9% | blocked | did not affect | 19 ± 0.7 s | carrageenan-induced inflammation [3]: blocks; morphine-induced increased production of S1P in dorsal horn tissues (S1P; daily i.th for 6 days with s.c. morphine infusion, Myr 0.3, FB1 1, D609 1, DMS 0.3, SK-1 0.3 μM/day): blocked; effect on S1P levels in spinal cord tissues (S1P; drug alone vs Veh-Sal, day 6): did not affect; carrageenan-induced thermal hyperalgesia (rats [4]; intraplantar SK-1 250, 500 or 1000 ng): attenuated in a dose-dependent manner; reversal of tolerance once established (Male Sprague Dawley rats [5]): did not reverse
6 | CCCCCCc1cccc(NC(=O)[C@@H](N)CCP(=O)(O)O)c1 [W140] |  |  |  |  |  |  |  |  | effect on tail flick latencies when given alone (Male Sprague Dawley rats [1]): had no effect; effect on hindpaw withdrawal latencies when given alone (Male Sprague Dawley rats [2]): had no effect
7 | CCCCCCc1cccc(NC(=O)[C@H](N)CCP(=O)(O)O)c1 [W146] |  |  |  |  |  |  |  |  | Ki [6]: ~0.08 µM; observable side effects (rats [7]): No observable side effects; potency at the murine S1P1 subtype relative to human (murine S1P1 subtype): equipotency; effect when given alone (no ceramide) (rats [8]): had no effect; ceramide-induced thermal hyperalgesia (rats [8]; LT1002 242 μg, LT1017 286 μg, W146 0.3, 0.6 or 1.2 μg, W140 1.2 μg): inhibited; block of development of antinociceptive tolerance (Male Sprague Dawley rats [1]; [13]): > 90%; effect on tail flick latencies when given alone (Male Sprague Dawley rats [1]): had no effect; baseline withdrawal thresholds when given alone (Male Sprague Dawley rats [9]; W146 3 μM/day, highest dose tested): did not affect; development of paclitaxel-induced mechano-allodynia (Male Sprague Dawley rats [9]; [14]): attenuated in a dose-dependent manner; development of paclitaxel-induced mechano-hyperalgesia (Male Sprague Dawley rats [9]; [14]): attenuated in a dose-dependent manner; reversal of Paclitaxel-induced neuropathic pain (Male Sprague Dawley rats [9]; given i.p on day 16, behavioral testing 60 minutes later): reverses; carrageenan-induced hyperalgesia (rats [4]; W146, FIG. 14): blocks; development of S1P-induced thermal hyperalgesia [10]: blocked; antagonistic or agonistic activity against other S1P receptor subtypes [11]: No-antagonistic (or agonistic) activity; block of development of thermal hyperalgesia (Male Sprague Dawley rats [2]; [13]): > 90%; effect on hindpaw withdrawal latencies when given alone (Male Sprague Dawley rats [2]): had no effect; effect on dose-response to acute morphine (rats [12]): did not modify
